Data taken from PubChem BioAssay AID2060509 (Molecular Pharmacology Branch, DTP, NCI, 2025).

Tested on: 485176-168-R4-J1-PDC spheroids with HUVEC/MSC, viability
Assay: Anticancer human tumor 485176-168-R4-J1-PDC patient-derived pancreatic adenocarcinoma cell line growth inhibition [GQUAD]
Settings: for IC50: curve of first compound; for viability, T/C: stronger effect = lower value
Outline: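 Multi-cell-type spheroids of tumor cells with HUVEC and mesenchymal stem cells, treated with drug combinations. Concentrations descend in half-log steps from near clinical Cmax, or from 10 microM where Cmax is unknown; viability read-out.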

[1] = second compound 0.0316 µM, first compound 0.0316 µM
[2] = second compound 0.0316 µM, first compound 0.1 µM
[3] = second compound 0.0316 µM, first compound 0.316 µM
[4] = second compound 0.0316 µM, first compound 1 µM
[5] = second compound 0.0316 µM, first compound 3.16 µM
[6] = second compound 0.0316 µM, first compound 10 µM
[7] = second compound 0.1 µM, first compound 0.0316 µM
[8] = second compound 0.1 µM, first compound 0.1 µM
[9] = second compound 0.1 µM, first compound 0.316 µM
[10] = second compound 0.1 µM, first compound 1 µM
[11] = second compound 0.1 µM, first compound 3.16 µM
[12] = second compound 0.1 µM, first compound 10 µM
[13] = second compound 0.316 µM, first compound 0.0316 µM
[14] = second compound 0.316 µM, first compound 0.1 µM
[15] = second compound 0.316 µM, first compound 0.316 µM
[16] = second compound 0.316 µM, first compound 1 µM
[17] = second compound 0.316 µM, first compound 3.16 µM
[18] = second compound 0.316 µM, first compound 10 µM
[19] = second compound 1 µM, first compound 0.0316 µM
[20] = second compound 1 µM, first compound 0.1 µM
[21] = second compound 1 µM, first compound 0.316 µM
[22] = second compound 1 µM, first compound 1 µM
[23] = second compound 1 µM, first compound 3.16 µM
[24] = second compound 1 µM, first compound 10 µM
[25] = second compound 3.16 µM, first compound 0.0316 µM
[26] = second compound 3.16 µM, first compound 0.1 µM
[27] = second compound 3.16 µM, first compound 0.316 µM
[28] = second compound 3.16 µM, first compound 1 µM
[29] = second compound 3.16 µM, first compound 3.16 µM
[30] = second compound 3.16 µM, first compound 10 µM
[31] = second compound 10 µM, first compound 0.0316 µM
[32] = second compound 10 µM, first compound 0.1 µM
[33] = second compound 10 µM, first compound 0.316 µM
[34] = second compound 10 µM, first compound 1 µM
[35] = second compound 10 µM, first compound 3.16 µM
[36] = second compound 10 µM, first compound 10 µM
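Also: spheroids exposed to compounds for seven days before readout.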
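For viability, T/C in this document: percent viability relative to DMSO vehicle control wells as 100%.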

Work on COc1ccc([C@@H](O)c2cc(-c3ncnc4cc(N5CCOCC5)ccc34)c(F)cc2Cl)nn1 + CN(C)c1ccc(Nc2c3ccc(NC(=O)CCN4CCCC4)cc3nc3cc(NC(=O)CCN4CCCC4)ccc23)cc1 yielded an IC50 (second compound 0.0316 µM) of 5.71 µM, an IC50 (second compound 0.1 µM) of 4.75 µM and an IC50 (second compound 0.316 µM) of 4.76 µM. It also gave an IC50 (second compound 1 µM) of 4.58 µM, an IC50 (second compound 3.16 µM) of 4.12 µM and an IC50 (second compound 10 µM) of 3.13 µM. The viability, T/C [1] was 97.4%, the viability, T/C [2] was 96.6% and the viability, T/C [3] was 96.1%. The viability, T/C [4] was 82.3%, the viability, T/C [5] was 70.9% and the viability, T/C [6] was 31.4%. For the same molecule, the viability, T/C [7] was 97.6%, the viability, T/C [8] was 98.4% and the viability, T/C [9] was 89.1%. It also gave a viability, T/C [10] of 80.5%, a viability, T/C [11] of 60.6% and a viability, T/C [12] of 30.7%. The viability, T/C [13] was 87%, the viability, T/C [14] was 92.2% and the viability, T/C [15] was 109%. The viability, T/C [16] was 75.6%, the viability, T/C [17] was 62.9% and the viability, T/C [18] was 30.6%. It also gave a viability, T/C [19] of 106%, a viability, T/C [20] of 91.8% and a viability, T/C [21] of 100%. For the same molecule, the viability, T/C [22] was 84.1%, the viability, T/C [23] was 60.9% and the viability, T/C [24] was 27.1%. For the same molecule, the viability, T/C [25] was 108%, the viability, T/C [26] was 107% and the viability, T/C [27] was 81.4%. It also gave a viability, T/C [28] of 74.9%, a viability, T/C [29] of 57.9% and a viability, T/C [30] of 31.8%. The viability, T/C [31] was 77.6%, the viability, T/C [32] was 87.5% and the viability, T/C [33] was 73.7%. For the same molecule, the viability, T/C [34] was 61.9%, the viability, T/C [35] was 52.4% and the viability, T/C [36] was 23.8%.

With COc1ccc([C@@H](O)c2cc(-c3ncnc4cc(N5CCOCC5)ccc34)c(F)cc2Cl)nn1 + Cc1cnc(CNC(=O)c2c(=O)c3ccc(N4CCCN(C)CC4)nc3n3c2sc2ccccc23)cn1 the IC50 (second compound 0.0316 µM) was 1.1 µM, the IC50 (second compound 0.1 µM) was 0.486 µM and the IC50 (second compound 0.316 µM) was 0.321 µM. For the same molecule, the IC50 (second compound 1 µM) was 0.0501 µM, the IC50 (second compound 3.16 µM) was < 0.0316 µM and the IC50 (second compound 10 µM) was < 0.0316 µM. The viability, T/C [1] was 94.3%, the viability, T/C [2] was 91.4% and the viability, T/C [3] was 84.5%. It also gave a viability, T/C [4] of 48.5%, a viability, T/C [5] of 39.1% and a viability, T/C [6] of 24.4%. It also gave a viability, T/C [7] of 61.6%, a viability, T/C [8] of 67.9% and a viability, T/C [9] of 45.4%. It also gave a viability, T/C [10] of 47.9%, a viability, T/C [11] of 31.5% and a viability, T/C [12] of 18.7%. The viability, T/C [13] was 58.9%, the viability, T/C [14] was 64.7% and the viability, T/C [15] was 46.9%. The viability, T/C [16] was 36.9%, the viability, T/C [17] was 29.5% and the viability, T/C [18] was 16.1%. It also gave a viability, T/C [19] of 49.7%, a viability, T/C [20] of 54.6% and a viability, T/C [21] of 37.2%. The viability, T/C [22] was 45.5%, the viability, T/C [23] was 30.1% and the viability, T/C [24] was 14.2%. For the same molecule, the viability, T/C [25] was 46%, the viability, T/C [26] was 43.7% and the viability, T/C [27] was 36.6%. It also gave a viability, T/C [28] of 36%, a viability, T/C [29] of 31.9% and a viability, T/C [30] of 14.2%. The viability, T/C [31] was 33.7%, the viability, T/C [32] was 39.7% and the viability, T/C [33] was 36.5%. The viability, T/C [34] was 29.1%, the viability, T/C [35] was 28.8% and the viability, T/C [36] was 14.9%.
